Assay results reported in patent publication US8415469B2, “Compounds and methods for kinase modulation, and indications therefor” (Plexxikon Inc., priority 2005, dated 2013).

How the values were obtained:
Type in all cases: biochemical
Kit = molecular target: T1, Kit (Homo sapiens, UniProt P10721); assay: AlphaScreen kinase assay, Kit; conditions: read-out: IC50, activity toward kinase Kit
T1 construct: P1332.N6 BI PTP KIT M552-K948-X COD; His6 (N); made in house; host or cells: E. coli (PTP1B co-expressed)

Ret = molecular target: T2, Ret (Homo sapiens, UniProt P07949); assay: AlphaScreen kinase assay, Ret; conditions: read-out: IC50, activity toward kinase Ret
T2 construct: P1378.pET-SF BI-PTP RET H661-R1012 HIS; made in house
T2 sequence (P07949 with tags, fused parts or gaps): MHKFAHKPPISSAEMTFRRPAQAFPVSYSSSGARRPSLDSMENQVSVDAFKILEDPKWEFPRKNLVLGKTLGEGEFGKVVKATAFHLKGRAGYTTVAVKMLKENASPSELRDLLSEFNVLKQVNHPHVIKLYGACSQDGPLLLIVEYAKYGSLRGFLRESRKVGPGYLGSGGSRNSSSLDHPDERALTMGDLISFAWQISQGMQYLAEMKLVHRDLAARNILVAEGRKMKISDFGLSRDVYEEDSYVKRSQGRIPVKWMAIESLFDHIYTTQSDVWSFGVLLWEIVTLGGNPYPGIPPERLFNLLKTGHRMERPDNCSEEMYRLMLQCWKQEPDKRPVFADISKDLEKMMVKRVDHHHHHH

Kdr = molecular target: T3, Kdr (Homo sapiens, UniProt P35968); assay: Z'-Lyte FRET kinase assay (Invitrogen), Kdr; conditions: read-out: IC50, activity toward kinase Kdr
T3 construct: purchased Invitrogen (assay run by Invitrogen)

B-Raf = molecular target: T4, B-Raf (Homo sapiens, UniProt P15056); assay: AlphaScreen kinase assay, B-Raf; conditions: read-out: IC50, activity toward kinase B-Raf
T4 construct: purchased Upstate Biotechnology

FGFR1 = molecular target: T5, FGFR1 (Homo sapiens, UniProt P11362, C488A/C584S); assay: AlphaScreen kinase assay, FGFR1; conditions: read-out: IC50, activity toward kinase FGFR
T5 construct: P1351.pET N6 BI-PTP FGFR A458-E765-X C488A, C584S; made in house; host or cells: E. coli (PTP1B co-expressed)

Jnk3 = molecular target: T6, Jnk3 (Homo sapiens, UniProt P53779); assay: AlphaScreen kinase assay, Jnk3; conditions: read-out: IC50, activity toward kinase Jnk3
T6 construct: purchased Upstate Biotechnology

B-Raf V600E = molecular target: T7, B-Raf V600E (Homo sapiens, UniProt P15056, V600E); assay: AlphaScreen kinase assay, B-Raf V600E; conditions: read-out: IC50, activity toward kinase B-Raf V600E
T7 construct: P4254. pFastBacBD-CDC37 BRAF D437-K722-X, V600E; His6 with pFastBac HT leader (TEV site) (N); made in house; host or cells: Sf9 (baculovirus; chaperone CDC37 co-expressed)

Flt1 = molecular target: T8, Flt1 (Homo sapiens, UniProt P17948); assay: AlphaScreen kinase assay, Flt1; conditions: read-out: IC50, activity toward kinase Flt1
T8 construct: P1826.pETN6 BI-PTP FLT1 M799-D1165-X WT; His6 (N); made in house; host or cells: E. coli (PTP1B co-expressed)
T8 sequence (P17948 with tags, fused parts or gaps): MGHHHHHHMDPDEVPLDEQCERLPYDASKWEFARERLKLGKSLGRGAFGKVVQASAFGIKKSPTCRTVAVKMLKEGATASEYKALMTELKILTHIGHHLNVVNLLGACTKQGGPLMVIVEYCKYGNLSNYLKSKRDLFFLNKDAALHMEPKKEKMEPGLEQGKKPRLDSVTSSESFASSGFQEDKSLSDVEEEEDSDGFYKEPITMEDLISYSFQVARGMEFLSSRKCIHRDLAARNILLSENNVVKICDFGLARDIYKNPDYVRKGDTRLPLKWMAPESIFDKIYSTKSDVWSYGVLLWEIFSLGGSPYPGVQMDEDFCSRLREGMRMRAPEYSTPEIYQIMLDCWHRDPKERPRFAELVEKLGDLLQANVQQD

Fms = molecular target: T9, Fms (Homo sapiens, UniProt P07333); assay: AlphaScreen kinase assay, Fms; conditions: read-out: IC50, activity toward kinase Fms
T9 construct: purchased Upstate Biotechnology

Jnk1 = molecular target: T10, Jnk1 (Homo sapiens, UniProt P45983); assay: AlphaScreen kinase assay, Jnk1; conditions: read-out: IC50, activity toward kinase Jnk1
T10 construct: purchased Upstate Biotechnology

c-Raf-1 = molecular target: T11, c-Raf-1 (Homo sapiens, UniProt P04049); assay: AlphaScreen kinase assay, c-Raf-1; conditions: read-out: IC50, activity toward kinase c-Raf-1
T11 construct: purchased Upstate Biotechnology

T9 sequence (P07333 20-972): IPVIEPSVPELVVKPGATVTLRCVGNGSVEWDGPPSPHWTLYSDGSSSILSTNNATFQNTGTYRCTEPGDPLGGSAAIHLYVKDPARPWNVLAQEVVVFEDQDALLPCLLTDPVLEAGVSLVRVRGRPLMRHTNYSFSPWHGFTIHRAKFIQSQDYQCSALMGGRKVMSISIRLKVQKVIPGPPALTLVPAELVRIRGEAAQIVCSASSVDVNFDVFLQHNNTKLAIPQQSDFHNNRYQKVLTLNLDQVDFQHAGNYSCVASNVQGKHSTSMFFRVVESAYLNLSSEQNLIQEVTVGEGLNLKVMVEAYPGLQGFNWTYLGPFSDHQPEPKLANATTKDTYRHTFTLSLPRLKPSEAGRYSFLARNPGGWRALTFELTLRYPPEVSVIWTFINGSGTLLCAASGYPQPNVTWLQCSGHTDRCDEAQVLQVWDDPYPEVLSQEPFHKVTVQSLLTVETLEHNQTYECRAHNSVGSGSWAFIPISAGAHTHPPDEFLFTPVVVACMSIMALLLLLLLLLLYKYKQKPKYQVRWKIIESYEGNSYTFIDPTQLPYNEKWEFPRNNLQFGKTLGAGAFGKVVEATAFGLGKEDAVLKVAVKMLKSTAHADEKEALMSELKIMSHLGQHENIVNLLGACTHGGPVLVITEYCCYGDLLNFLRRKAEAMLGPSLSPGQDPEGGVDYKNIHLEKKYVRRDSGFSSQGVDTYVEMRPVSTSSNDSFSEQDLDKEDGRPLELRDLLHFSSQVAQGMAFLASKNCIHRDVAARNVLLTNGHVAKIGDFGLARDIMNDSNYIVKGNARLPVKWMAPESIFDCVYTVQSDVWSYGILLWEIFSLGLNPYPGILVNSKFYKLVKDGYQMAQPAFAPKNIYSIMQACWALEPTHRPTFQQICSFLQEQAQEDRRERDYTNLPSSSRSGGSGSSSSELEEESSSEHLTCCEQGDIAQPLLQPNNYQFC
T5 sequence (P11362 458-765 C488A/C584S): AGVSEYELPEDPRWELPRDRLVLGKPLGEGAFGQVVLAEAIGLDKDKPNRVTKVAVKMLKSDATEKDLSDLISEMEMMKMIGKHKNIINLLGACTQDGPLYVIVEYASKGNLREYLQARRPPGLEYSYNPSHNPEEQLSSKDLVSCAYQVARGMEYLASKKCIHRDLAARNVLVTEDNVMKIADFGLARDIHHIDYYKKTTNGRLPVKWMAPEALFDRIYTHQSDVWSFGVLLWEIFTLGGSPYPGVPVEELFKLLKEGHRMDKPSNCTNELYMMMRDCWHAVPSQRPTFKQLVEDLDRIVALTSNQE
T10 sequence (P45983 whole entry): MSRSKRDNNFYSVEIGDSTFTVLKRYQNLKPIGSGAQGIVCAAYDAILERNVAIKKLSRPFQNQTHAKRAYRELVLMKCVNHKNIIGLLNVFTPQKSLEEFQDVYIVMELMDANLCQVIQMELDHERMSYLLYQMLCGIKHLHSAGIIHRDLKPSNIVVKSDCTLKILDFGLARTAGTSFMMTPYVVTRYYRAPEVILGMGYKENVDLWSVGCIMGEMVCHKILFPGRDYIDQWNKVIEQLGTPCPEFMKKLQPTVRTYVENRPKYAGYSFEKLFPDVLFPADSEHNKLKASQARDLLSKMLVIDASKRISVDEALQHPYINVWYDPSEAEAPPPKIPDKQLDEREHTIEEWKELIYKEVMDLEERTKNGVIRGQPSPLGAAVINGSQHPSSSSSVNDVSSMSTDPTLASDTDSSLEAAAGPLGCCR
T1 sequence (P10721 with tags, fused parts or gaps): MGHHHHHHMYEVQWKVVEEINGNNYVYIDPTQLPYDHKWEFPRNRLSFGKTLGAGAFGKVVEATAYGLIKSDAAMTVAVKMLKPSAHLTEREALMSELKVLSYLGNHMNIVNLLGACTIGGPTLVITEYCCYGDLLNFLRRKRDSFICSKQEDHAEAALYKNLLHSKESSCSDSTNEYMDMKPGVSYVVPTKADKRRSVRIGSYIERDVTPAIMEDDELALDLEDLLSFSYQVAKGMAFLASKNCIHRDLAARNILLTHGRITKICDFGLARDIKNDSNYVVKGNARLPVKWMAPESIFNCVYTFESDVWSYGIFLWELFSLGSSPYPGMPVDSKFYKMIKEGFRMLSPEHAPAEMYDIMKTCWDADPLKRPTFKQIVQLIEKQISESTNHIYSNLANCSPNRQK
T3 sequence (P35968 20-1356): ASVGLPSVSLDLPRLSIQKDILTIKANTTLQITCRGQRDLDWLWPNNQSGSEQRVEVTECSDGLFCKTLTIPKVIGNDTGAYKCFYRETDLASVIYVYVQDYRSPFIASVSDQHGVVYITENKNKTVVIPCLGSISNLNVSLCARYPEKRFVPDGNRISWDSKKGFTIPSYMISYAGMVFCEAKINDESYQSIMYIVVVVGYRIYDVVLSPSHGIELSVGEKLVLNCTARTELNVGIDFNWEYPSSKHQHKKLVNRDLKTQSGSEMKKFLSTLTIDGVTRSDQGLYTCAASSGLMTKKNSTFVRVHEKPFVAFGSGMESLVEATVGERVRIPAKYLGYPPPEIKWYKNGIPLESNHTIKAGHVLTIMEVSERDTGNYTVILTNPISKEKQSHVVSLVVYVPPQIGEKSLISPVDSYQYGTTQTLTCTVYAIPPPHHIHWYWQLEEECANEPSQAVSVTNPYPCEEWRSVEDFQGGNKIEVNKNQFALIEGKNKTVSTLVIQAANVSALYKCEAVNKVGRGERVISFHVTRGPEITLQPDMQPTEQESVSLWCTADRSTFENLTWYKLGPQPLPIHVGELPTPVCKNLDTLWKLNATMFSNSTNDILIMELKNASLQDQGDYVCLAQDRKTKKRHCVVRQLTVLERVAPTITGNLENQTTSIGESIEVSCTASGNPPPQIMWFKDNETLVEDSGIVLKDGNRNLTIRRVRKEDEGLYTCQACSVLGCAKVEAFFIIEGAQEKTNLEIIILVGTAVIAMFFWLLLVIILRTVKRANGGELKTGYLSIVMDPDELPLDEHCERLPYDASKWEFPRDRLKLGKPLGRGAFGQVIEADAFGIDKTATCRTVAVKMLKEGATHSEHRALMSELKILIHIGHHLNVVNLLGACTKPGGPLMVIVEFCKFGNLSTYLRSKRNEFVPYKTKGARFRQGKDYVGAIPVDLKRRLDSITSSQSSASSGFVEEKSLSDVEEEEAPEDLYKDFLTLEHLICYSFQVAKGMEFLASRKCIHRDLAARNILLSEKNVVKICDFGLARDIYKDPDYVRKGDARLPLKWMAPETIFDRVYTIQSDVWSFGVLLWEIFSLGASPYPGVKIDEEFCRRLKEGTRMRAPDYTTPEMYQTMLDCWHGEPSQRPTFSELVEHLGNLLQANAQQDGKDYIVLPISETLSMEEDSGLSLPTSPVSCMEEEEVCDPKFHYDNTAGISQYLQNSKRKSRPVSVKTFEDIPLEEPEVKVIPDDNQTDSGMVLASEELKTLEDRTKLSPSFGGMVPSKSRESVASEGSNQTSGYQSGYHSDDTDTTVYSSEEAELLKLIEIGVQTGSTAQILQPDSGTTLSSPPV
T6 sequence (P53779 whole entry): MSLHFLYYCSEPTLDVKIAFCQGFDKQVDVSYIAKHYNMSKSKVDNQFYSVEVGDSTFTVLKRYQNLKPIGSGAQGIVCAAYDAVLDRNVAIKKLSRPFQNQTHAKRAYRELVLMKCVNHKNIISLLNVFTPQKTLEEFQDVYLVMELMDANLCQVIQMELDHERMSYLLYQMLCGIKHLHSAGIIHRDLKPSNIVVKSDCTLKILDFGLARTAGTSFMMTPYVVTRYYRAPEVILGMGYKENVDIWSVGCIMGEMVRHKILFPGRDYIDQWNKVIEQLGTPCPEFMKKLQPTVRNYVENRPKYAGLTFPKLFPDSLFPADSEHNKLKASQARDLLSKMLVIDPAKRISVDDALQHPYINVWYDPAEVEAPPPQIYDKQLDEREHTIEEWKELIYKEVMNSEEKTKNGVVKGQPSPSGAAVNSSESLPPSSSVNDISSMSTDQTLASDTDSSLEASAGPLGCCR
T4 sequence (P15056 whole entry): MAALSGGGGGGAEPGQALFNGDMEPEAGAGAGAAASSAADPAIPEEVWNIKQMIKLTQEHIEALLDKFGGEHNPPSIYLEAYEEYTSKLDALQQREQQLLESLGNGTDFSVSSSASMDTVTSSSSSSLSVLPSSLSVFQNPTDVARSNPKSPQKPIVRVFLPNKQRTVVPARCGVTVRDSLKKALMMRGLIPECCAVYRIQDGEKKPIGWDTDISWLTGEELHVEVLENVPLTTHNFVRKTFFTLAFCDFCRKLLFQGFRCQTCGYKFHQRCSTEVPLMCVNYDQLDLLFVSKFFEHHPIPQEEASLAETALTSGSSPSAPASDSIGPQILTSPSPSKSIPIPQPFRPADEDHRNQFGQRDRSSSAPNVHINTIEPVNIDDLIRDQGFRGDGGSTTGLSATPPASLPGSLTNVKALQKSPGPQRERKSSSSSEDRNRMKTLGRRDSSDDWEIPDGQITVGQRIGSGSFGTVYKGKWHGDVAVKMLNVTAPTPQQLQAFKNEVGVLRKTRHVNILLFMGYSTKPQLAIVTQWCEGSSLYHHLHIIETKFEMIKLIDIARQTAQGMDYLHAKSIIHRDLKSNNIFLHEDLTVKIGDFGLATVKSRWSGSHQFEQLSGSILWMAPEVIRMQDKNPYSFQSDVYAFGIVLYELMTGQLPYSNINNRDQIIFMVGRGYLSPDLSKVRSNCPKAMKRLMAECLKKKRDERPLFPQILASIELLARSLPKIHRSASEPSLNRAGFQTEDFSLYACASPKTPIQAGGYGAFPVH
T7 sequence (P15056 with tags, fused parts or gaps V600E): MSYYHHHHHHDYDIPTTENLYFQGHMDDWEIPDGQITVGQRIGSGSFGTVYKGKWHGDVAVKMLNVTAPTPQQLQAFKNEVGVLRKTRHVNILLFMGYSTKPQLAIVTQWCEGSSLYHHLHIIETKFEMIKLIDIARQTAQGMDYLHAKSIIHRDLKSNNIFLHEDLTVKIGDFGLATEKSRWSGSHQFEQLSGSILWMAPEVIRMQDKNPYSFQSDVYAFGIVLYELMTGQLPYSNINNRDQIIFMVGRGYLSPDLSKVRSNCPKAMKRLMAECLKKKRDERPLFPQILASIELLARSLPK

IC50 (Kit) [µM] | IC50 (Kdr) [µM] | IC50 (FGFR1) [µM] | IC50 (Jnk3) [µM] | IC50 (B-Raf V600E) [µM] | IC50 (Flt1) [µM] | SMILES | also measured
≤ 10 | ≤ 10 | ≤ 10 | ≤ 10 | ≤ 10 | ≤ 10 | Oc1ccc(Cc2c[nH]c3ncc(-c4ccsc4)cc23)cc1O [Compound P-0683] | IC50 (Ret): ≤ 10 µM; IC50 (B-Raf): ≤ 10 µM
≤ 10 | ≤ 10 | ≤ 10 |  |  | ≤ 10 | c1cc(Cc2c[nH]c3ncccc23)cc(OCCOC2CCCCO2)c1 (centres unmarked) [Compound P-0326] | 
 |  |  | ≤ 10 |  |  | c1ccc2sc(-c3cnc4[nH]ccc4c3)cc2c1 [Compound P-1087] | 
 |  |  | ≤ 10 | ≤ 10 |  | O=C(Nc1cccc(F)c1)Nc1cccc(C(=O)c2c[nH]c3ncccc23)c1 [Compound P-1716, 1-(3-Fluoro-phenyl)-3-[3-(1H-pyrrolo[2,3-b]pyridine-3-carbonyl)-phenyl]-urea] | IC50 (Fms): ≤ 10 µM; IC50 (B-Raf): ≤ 10 µM
 | ≤ 10 | ≤ 10 |  | ≤ 10 |  | CC(C)CNc1ccc(Cc2c[nH]c3ncccc23)cn1 [Compound P-0192] | IC50 (B-Raf): ≤ 10 µM
 |  |  | ≤ 10 |  |  | CC(=O)Nc1cccc(Nc2cnc3[nH]ccc3c2)c1 [Compound P-1032] | 
 |  |  |  | ≤ 10 |  | Cc1ccc(S(=O)(=O)Nc2ccc(F)c(C(=O)c3c[nH]c4ncc(Cl)cc34)c2F)cc1 [Compound P-1842, N-[3-(5-Chloro-1H-pyrrolo[2,3-b]pyridine-3-carbonyl)-2,4-difluoro-phenyl]-4-methyl-benzenesulfonamide] | IC50 (Jnk1): ≤ 10 µM; IC50 (B-Raf): ≤ 10 µM
 | ≤ 10 |  |  |  | ≤ 10 | c1coc(-c2c[nH]c3ncccc23)c1 [Compound P-0455] | 
≤ 10 | ≤ 10 | ≤ 10 |  |  | ≤ 10 | COc1ccc(F)c(C(=O)c2c[nH]c3ncccc23)c1 [Compound P-0103] | IC50 (Fms): ≤ 10 µM; IC50 (Ret): ≤ 10 µM
≤ 10 |  |  | ≤ 10 | ≤ 10 |  | O=C(Nc1ccccc1)Nc1cccc(C(=O)c2c[nH]c3ncccc23)c1 [Compound P-1703, 1-Phenyl-3-[3-(1H-pyrrolo[2,3-b]pyridine-3-carbonyl)-phenyl]-urea] | IC50 (Fms): ≤ 10 µM; IC50 (B-Raf): ≤ 10 µM
≤ 10 | ≤ 10 | ≤ 10 | ≤ 10 |  | ≤ 10 | Cc1cc(C(=O)c2c[nH]c3ncc(-c4ccsc4)cc23)no1 [Compound P-0640] | IC50 (Ret): ≤ 10 µM
 |  |  |  |  |  | OC(c1ccc(OCc2nc3ccccc3[nH]2)c(F)c1)c1c[nH]c2ncccc12 (centres unmarked) [Compound P-1898] | IC50 (Jnk1): ≤ 10 µM
≤ 10 |  | ≤ 10 | ≤ 10 |  | ≤ 10 | COc1cccc(C(=O)c2c[nH]c3ncc(-c4ccccc4)cc23)c1 [Compound P-0371] | IC50 (Ret): ≤ 10 µM
≤ 10 | ≤ 10 | ≤ 10 |  |  |  | COc1cccc(C(=O)c2c[nH]c3ncccc23)c1 [Compound P-0168] | 
≤ 10 |  |  | ≤ 10 |  |  | Clc1cccc(Nc2c[nH]c3ncccc23)c1 [Compound P-1489, (3-Chloro-phenyl)-(1H-pyrrolo[2,3-b]pyridin-3-yl)-amine] | IC50 (Fms): ≤ 10 µM
 |  | ≤ 10 | ≤ 10 | ≤ 10 |  | COc1cnc2[nH]cc(Sc3ccccn3)c2c1 [Compound P-1561] | 
≤ 10 |  |  | ≤ 10 |  | ≤ 10 | O=C(c1ccccc1O)c1c[nH]c2ncc(-c3cccs3)cc12 [Compound P-0757] | IC50 (Ret): ≤ 10 µM
 |  |  | ≤ 10 |  |  | COc1ccc(Nc2ccc3cc[nH]c3n2)cc1 [Compound P-1355, (4-Methoxy-phenyl)-(1H-pyrrolo[2,3-b]pyridin-6-yl)-amine] | 

IC50 (Kit) [µM] | IC50 (Kdr) [µM] | IC50 (FGFR1) [µM] | IC50 (Jnk3) [µM] | IC50 (B-Raf V600E) [µM] | IC50 (Flt1) [µM] | SMILES | also measured
≤ 10 |  |  | ≤ 10 |  |  | COc1cccc(Nc2c[nH]c3ncccc23)c1 [Compound P-1490, (3-Methoxy-phenyl)-(1H-pyrrolo[2,3-b]pyridin-3-yl)-amine] | IC50 (Fms): ≤ 10 µM
 | ≤ 10 |  |  | ≤ 10 | ≤ 10 | O=[N+]([O-])c1cc(S(=O)(=O)NCc2c[nH]c3ncccc23)sc1Cl [Compound P-0777] | 
 |  | ≤ 10 | ≤ 10 | ≤ 10 |  | Oc1cccc(C(O)c2c[nH]c3ncc(-c4cccs4)cc23)c1 (centres unmarked) [Compound P-0710] | IC50 (Ret): ≤ 10 µM
 |  |  | ≤ 10 |  |  | Clc1ccc(-c2cnc3[nH]ccc3c2)s1 [Compound P-1088] | 
 | ≤ 10 | ≤ 10 |  |  |  | COc1ccc(Cc2c[nH]c3nccc(-c4ccsc4)c23)cn1 [Compound P-0289] | IC50 (Ret): ≤ 10 µM
≤ 10 | ≤ 10 |  |  |  |  | Cc1cc(C(=O)c2c[nH]c3ncc(-c4cccc(N)c4)cc23)no1 [Compound P-0796] | IC50 (Ret): ≤ 10 µM
≤ 10 | ≤ 10 | ≤ 10 |  |  |  | COc1cc(OC)cc(C(=O)c2c[nH]c3ncccc23)c1 [Compound P-0473] | 
 | ≤ 10 | ≤ 10 |  | ≤ 10 | ≤ 10 | COc1ccc(CNc2ccc(Cc3c[nH]c4ncccc34)cn2)cc1 [Compound P-0274] | IC50 (Fms): ≤ 10 µM
≤ 10 |  |  | ≤ 10 |  |  | O=C(c1ccc(-c2cnc3[nH]ccc3c2)cc1)N1CCCC1 [Compound P-0625] | 
 | ≤ 10 | ≤ 10 |  |  |  | COc1cccc(Cc2c[nH]c3nccc(Br)c23)n1 [Compound P-0339] | IC50 (Ret): ≤ 10 µM
≤ 10 |  |  | ≤ 10 | ≤ 10 |  | O=C(Nc1cccc(C(=O)c2c[nH]c3ncccc23)c1)Nc1ccc(C(F)(F)F)cc1Cl [Compound P-1713, 1-(2-Chloro-4-trifluoromethyl-phenyl)-3-[3-(1H-pyrrolo[2,3-b]pyridine-3-carbonyl)-phenyl]-urea] | IC50 (c-Raf-1): ≤ 10 µM; IC50 (Fms): ≤ 10 µM; IC50 (B-Raf): ≤ 10 µM
≤ 10 |  | ≤ 10 | ≤ 10 | ≤ 10 | ≤ 10 | c1cncc(-c2cnc3[nH]cc(Cc4ccc5c(c4)OCCO5)c3c2)c1 [Compound P-1529, 3-(2,3-Dihydro-benzo[1,4]dioxin-6-ylmethyl)-5-pyridin-3-yl-1H-pyrrolo[2,3-b]pyridine] | IC50 (Fms): ≤ 10 µM; IC50 (B-Raf): ≤ 10 µM
≤ 10 | ≤ 10 |  |  |  |  | Clc1cccc(-c2ccnc3[nH]ccc23)c1 [Compound P-0427] | 
≤ 10 |  |  | ≤ 10 | ≤ 10 | ≤ 10 | c1ccc(COc2ccccc2Nc2c[nH]c3ncccc23)cc1 [Compound P-1505, (2-Benzyloxy-phenyl)-(1H-pyrrolo[2,3-b]pyridin-3-yl)-amine] | IC50 (Fms): ≤ 10 µM
≤ 10 |  |  | ≤ 10 |  |  | O=C(c1ccccc1O)c1c[nH]c2ncc(Br)cc12 [Compound P-0263] | 
 |  |  |  |  |  | c1csc(-c2ccnc3[nH]ccc23)c1 [Compound P-0431] | IC50 (Jnk1): ≤ 10 µM
≤ 10 |  |  | ≤ 10 | ≤ 10 |  | O=C(Nc1ccc(F)cc1)Nc1cccc(C(=O)c2c[nH]c3ncccc23)c1 [Compound P-1704, 1-(4-Fluoro-phenyl)-3-[3-(1H-pyrrolo[2,3-b]pyridine-3-carbonyl)-phenyl]-urea] | IC50 (Fms): ≤ 10 µM; IC50 (B-Raf): ≤ 10 µM
≤ 10 |  |  | ≤ 10 |  |  | NC(=O)c1ccc(-c2cnc3[nH]ccc3c2)cc1 [Compound P-0659] | IC50 (Ret): ≤ 10 µM
